# From BindingDB's records for doi:10.1111/j.1747-0285.2012.01367.x (Peking University Health Science Center, 2012)
# Target: Beta-secretase 1 (Homo sapiens, UniProt P56817)
# Assay: BACE-1 Inhibiiton Assay
# Procedure: Beta-Secretase inhibition evaluations were carried out using a fluorescence resonance energy transfer (FRET) assay kit supplied by PanVera (kit P2985).
# Sequence of Beta-secretase 1 (P56817 whole entry): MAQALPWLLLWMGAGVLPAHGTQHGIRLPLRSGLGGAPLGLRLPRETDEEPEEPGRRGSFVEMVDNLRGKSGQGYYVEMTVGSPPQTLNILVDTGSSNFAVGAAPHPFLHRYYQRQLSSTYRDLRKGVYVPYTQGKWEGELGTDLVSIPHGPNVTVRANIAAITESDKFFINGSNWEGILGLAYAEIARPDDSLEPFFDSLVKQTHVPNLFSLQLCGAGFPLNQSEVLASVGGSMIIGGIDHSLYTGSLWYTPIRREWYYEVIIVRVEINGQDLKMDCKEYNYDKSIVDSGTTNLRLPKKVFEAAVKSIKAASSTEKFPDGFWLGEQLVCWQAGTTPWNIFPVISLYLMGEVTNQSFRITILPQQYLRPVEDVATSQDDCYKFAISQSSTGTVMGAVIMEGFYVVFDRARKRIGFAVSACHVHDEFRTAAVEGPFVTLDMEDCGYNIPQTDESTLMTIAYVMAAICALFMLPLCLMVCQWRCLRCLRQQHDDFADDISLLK
row,IC50 [nM],SMILES
1,4760,COc1ccc(-c2nc(SCC(=O)Nc3nc(-c4ccccc4)cs3)[nH]c(=O)c2C#N)cc1 [B51]
2,310,O=C(NCc1ccc2c(c1)OCO2)c1cnc2cc(S(=O)(=O)Nc3cccc(C(F)(F)F)c3)ccc2c1O [B53]
